Results from PMC9934367, “Functional impact of subunit composition and compensation on Drosophila melanogaster nicotinic receptors–targets of neonicotinoids” (PLOS Genetics, 2023).

Tested on: D. melanogaster nAChRs
Experiment: Comparison of agonist activity between nAChRs expressed in X. laevis oocytes (one-way ANOVA, Kruskal-Wallis)
Assay type: cell-based
How it was run: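 D. melanogaster nAChR subunits and co-factors expressed in X. laevis oocytes by cRNA injection, recorded after 3–4 days by two-electrode voltage clamp at −100 mV in saline with 0.5 μM atropine. Peak currents fitted to a Hill equation for EC50; pEC50 differences tested by one-way ANOVA or Kruskal-Wallis.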

[1] = Dα1/Dα2/Dα3/Dβ1/Dβ2 vs. Dα1/Dα2/Dα4/Dβ1/Dβ2
[2] = Dα1/Dα2/Dα3/Dβ1/Dβ2 vs. Dα1/Dα2/Dβ1/Dβ2/Dβ3
[3] = Dα1/Dα2/Dα3/Dβ1/Dβ2 vs. Dα1/Dα3/Dα4/Dβ1/Dβ2
[4] = Dα1/Dα2/Dα3/Dβ1/Dβ2 vs. Dα1/Dα3/Dβ1/Dβ2/Dβ3
[5] = Dα1/Dα2/Dα3/Dβ1/Dβ2 vs. Dα2/Dα3/Dα4/Dβ1/Dβ2
[6] = Dα1/Dα2/Dα3/Dβ1/Dβ2 vs. Dα2/Dα3/Dβ1/Dβ2/Dβ3
[7] = Dα1/Dα2/Dα3/Dβ1 vs. Dα1/Dα2/Dα3/Dβ1/Dβ2
[8] = Dα1/Dα2/Dα3/Dβ1 vs. Dα1/Dα2/Dβ1/Dβ2
[9] = Dα1/Dα2/Dα3/Dβ1 vs. Dα1/Dα3/Dβ1/Dβ2
[10] = Dα1/Dα2/Dα3/Dβ1 vs. Dα1/Dβ1/Dβ2
[11] = Dα1/Dα2/Dα3/Dβ1 vs. Dα2/Dα3/Dβ1/Dβ2
[12] = Dα1/Dα2/Dα3/Dβ1 vs. Dα3/Dβ1/Dβ2
[13] = Dα1/Dα2/Dβ1/Dβ2 vs. Dα1/Dα2/Dα3/Dβ1/Dβ2
[14] = Dα1/Dα2/Dβ1/Dβ2 vs. Dα2/Dα3/Dβ1/Dβ2
[15] = Dα1/Dα2/Dβ1 vs. Dα1/Dα2/Dα3/Dβ1
[16] = Dα1/Dα2/Dβ1 vs. Dα1/Dα2/Dα3/Dβ1/Dβ2
[17] = Dα1/Dα2/Dβ1 vs. Dα1/Dα2/Dβ1/Dβ2
[18] = Dα1/Dα2/Dβ1 vs. Dα1/Dα3/Dβ1/Dβ2
[19] = Dα1/Dα2/Dβ1 vs. Dα2/Dα3/Dβ1/Dβ2
[20] = Dα1/Dα3/Dβ1/Dβ2 vs. Dα1/Dα2/Dα3/Dβ1/Dβ2
[21] = Dα1/Dα3/Dβ1/Dβ2 vs. Dα1/Dα2/Dβ1/Dβ2
[22] = Dα1/Dα3/Dβ1/Dβ2 vs. Dα2/Dα3/Dβ1/Dβ2
[23] = Dα1/Dα3/Dβ1 vs. Dα1/Dα2/Dα3/Dβ1
[24] = Dα1/Dα3/Dβ1 vs. Dα1/Dα2/Dα3/Dβ1/Dβ2
[25] = Dα1/Dα3/Dβ1 vs. Dα1/Dα2/Dβ1/Dβ2
[26] = Dα1/Dα3/Dβ1 vs. Dα1/Dα3/Dβ1/Dβ2
[27] = Dα1/Dα3/Dβ1 vs. Dα2/Dα3/Dβ1/Dβ2
[28] = Dα1/Dβ1/Dβ2 vs. Dα1/Dα2/Dα3/Dβ1/Dβ2
[29] = Dα1/Dβ1/Dβ2 vs. Dα1/Dα2/Dβ1/Dβ2

CN/C(=N\[N+](=O)[O-])NCc1cnc(Cl)s1 [Clothianidin, clothianidin]
Difference of Imax values, nAChRs compared [1]: -0.189
Difference of pEC50 values, nAChRs compared [1]: -0.13
Difference of Imax values, nAChRs compared [2]: -0.162
Difference of pEC50 values, nAChRs compared [2]: 0.92
Difference of Imax values, nAChRs compared [3]: 0.388
Difference of pEC50 values, nAChRs compared [3]: -0.35
Difference of Imax values, nAChRs compared [4]: 0.281
Difference of pEC50 values, nAChRs compared [4]: -1.01
Difference of Imax values, nAChRs compared [5]: -0.100
Difference of pEC50 values, nAChRs compared [5]: -0.52
Difference of Imax values, nAChRs compared [6]: 0.117
Difference of pEC50 values, nAChRs compared [6]: -0.87
Difference of Imax values, nAChRs compared [7]: 0.005
Difference of pEC50 values, nAChRs compared [7]: -0.04
Difference of Imax values, nAChRs compared [8]: 0.017
Difference of pEC50 values, nAChRs compared [8]: 0.24
Difference of Imax values, nAChRs compared [9]: 0.133
Difference of pEC50 values, nAChRs compared [9]: -0.85
Difference of Imax values, nAChRs compared [10]: 0.457
Difference of pEC50 values, nAChRs compared [10]: -0.09
Difference of Imax values, nAChRs compared [11]: 0.183
Difference of pEC50 values, nAChRs compared [11]: -0.74
Difference of Imax values, nAChRs compared [12]: 0.325
Difference of pEC50 values, nAChRs compared [12]: -0.91
Difference of Imax values, nAChRs compared [13]: -0.012
Difference of pEC50 values, nAChRs compared [13]: -0.28
Difference of Imax values, nAChRs compared [14]: 0.166
Difference of pEC50 values, nAChRs compared [14]: -0.98
Difference of Imax values, nAChRs compared [15]: -0.118
Difference of pEC50 values, nAChRs compared [15]: -1.48
Difference of Imax values, nAChRs compared [16]: -0.113
Difference of pEC50 values, nAChRs compared [16]: -1.52
Difference of Imax values, nAChRs compared [17]: -0.101
Difference of pEC50 values, nAChRs compared [17]: -1.24
Difference of Imax values, nAChRs compared [18]: 0.015
Difference of pEC50 values, nAChRs compared [18]: -2.33
Difference of Imax values, nAChRs compared (Dα1/Dα2/Dβ1 vs. Dα1/Dβ1/Dβ2): 0.339
Difference of pEC50 values, nAChRs compared (Dα1/Dα2/Dβ1 vs. Dα1/Dβ1/Dβ2): -1.57
Difference of Imax values, nAChRs compared (Dα1/Dα2/Dβ1 vs. Dα2/Dα3/Dβ1): -0.183
Difference of pEC50 values, nAChRs compared (Dα1/Dα2/Dβ1 vs. Dα2/Dα3/Dβ1): -1.74
Difference of Imax values, nAChRs compared [19]: 0.065
Difference of pEC50 values, nAChRs compared [19]: -2.22
Difference of Imax values, nAChRs compared (Dα1/Dα2/Dβ1 vs. Dα3/Dβ1/Dβ2): 0.207
Difference of pEC50 values, nAChRs compared (Dα1/Dα2/Dβ1 vs. Dα3/Dβ1/Dβ2): -2.39
Difference of Imax values, nAChRs compared [20]: -0.128
Difference of pEC50 values, nAChRs compared [20]: 0.81
Difference of Imax values, nAChRs compared [21]: -0.116
Difference of pEC50 values, nAChRs compared [21]: 1.09
Difference of Imax values, nAChRs compared [22]: 0.050
Difference of pEC50 values, nAChRs compared [22]: 0.11
Difference of Imax values, nAChRs compared [23]: -0.190
Difference of pEC50 values, nAChRs compared [23]: 0.65
Difference of Imax values, nAChRs compared [24]: -0.185
Difference of pEC50 values, nAChRs compared [24]: 0.61
Difference of Imax values, nAChRs compared (Dα1/Dα3/Dβ1 vs. Dα1/Dα2/Dβ1): -0.072
Difference of pEC50 values, nAChRs compared (Dα1/Dα3/Dβ1 vs. Dα1/Dα2/Dβ1): 2.13
Difference of Imax values, nAChRs compared [25]: -0.173
Difference of pEC50 values, nAChRs compared [25]: 0.89
Difference of Imax values, nAChRs compared [26]: -0.057
Difference of pEC50 values, nAChRs compared [26]: -0.20
Difference of Imax values, nAChRs compared (Dα1/Dα3/Dβ1 vs. Dα1/Dβ1/Dβ2): 0.267
Difference of pEC50 values, nAChRs compared (Dα1/Dα3/Dβ1 vs. Dα1/Dβ1/Dβ2): 0.56
Difference of Imax values, nAChRs compared (Dα1/Dα3/Dβ1 vs. Dα2/Dα3/Dβ1): -0.255
Difference of pEC50 values, nAChRs compared (Dα1/Dα3/Dβ1 vs. Dα2/Dα3/Dβ1): 0.39
Difference of Imax values, nAChRs compared [27]: -0.007
Difference of pEC50 values, nAChRs compared [27]: -0.09
Difference of Imax values, nAChRs compared (Dα1/Dα3/Dβ1 vs. Dα3/Dβ1/Dβ2): 0.135
Difference of pEC50 values, nAChRs compared (Dα1/Dα3/Dβ1 vs. Dα3/Dβ1/Dβ2): -0.26
Difference of Imax values, nAChRs compared [28]: -0.452
Difference of pEC50 values, nAChRs compared [28]: 0.05
Difference of Imax values, nAChRs compared [29]: -0.440
Difference of pEC50 values, nAChRs compared [29]: 0.33
